≈ marks a conversion by molar mass, not a printed value. Read-outs that look alike come from different tables or passages of the source. Each block holds one compound with its values, some of them ahead of it.
Experiments:
[1] = tested on: Staphylococcus aureus ATCC43300; test: Resistance test of bacteria against compounds (serial induction, 21 days); type: cell-based; details: period of 21 days, S. aureus ATCC43300
Protocol: This example provides a resistance test of bacteria against compounds, and the specific experimental method is as follows.
1. […] It was ensured that among the 6 final concentrations of the drug diluted into the wells, some were higher than the original MIC of the bacteria and some were lower than the original MIC of the bacteria.
2. Preparation of bacterial liquid: 10 mL of culture medium was taken and added to a sterilized plate using a pipette, then 100 µL of the above-mentioned passaged bacterial liquid was added, and mixed well for later use.
3. The above-mentioned diluted bacterial liquid was taken and added to a 96-well plate using a pipette, 180 μL per well, 3 wells per group, 6 groups in total. 20 μL of drug solution was added to each well (note: it is necessary to replace the pipette tip each time the drug is added), so that the final drug concentrations were […], respectively. The well with 200 μL of diluted bacterial liquid was used as the positive control well, and the well with 200 μL of culture medium was used as the negative control well.
The test object was Staphylococcus aureus (S. aureus).

Hela = test: In vitro anticancer activity test (MTT cell proliferation); type: cell-based; details: Homo sapiens, read-out: Hela Average inhibition rate %
Protocol: The anticancer activity of the compounds was tested using an in vitro cancer cell tests. The specific test method is as follows:
1. Cell recovery and culture method: the cryovial was taken out from the liquid nitrogen container firstly, soaked directly in 37° C. warm water, and shaked from time to time to let it thaw as soon as possible. Then, the cryovial was transferred to a clean bench, and the lid was open. The cell suspension was taken into a centrifuge tube using a rubber-tipped dropper and more than 10 times the culture medium was added, mixed well, and centrifuged at 50 g for 5 minutes. Then, the supernatant was discarded, complete culture medium containing 10% fetal bovine serum was added to resuspend the cells, the cells was counted, the cell density was adjusted, and then inoculated into a culture bottle. The culture bottle was placed in a cell culture incubator at 5% CO2 and 37° C. The complete culture medium was replaced once the next day and the culture was continued.
2. Cell passaging method: adherent cells in the logarithmic growth phase were placed in a clean bench, the original culture medium was discarded, and washed three times with 1×PBS. An appropriate amount of 0.25% trypsin digestion solution was added to moisten the cells, and then the trypsin solution was aspirated. The cells were placed in a cell culture incubator at 5% CO2 and 37° C. for digestion for a suitable time, and observed under a microscope. When 90% of the cells become round, the cells were moved immediately to the clean bench and complete culture medium was added to terminate digestion. Then, the cells were dislodged by pipetting up and down with a rubber-tipped dropper to single cells. The cells were counted, and the cell density was adjusted. The cells were inoculated into a suitable culture bottle or dish, added enough complete culture medium, and placed in a cell culture incubator at 5% CO2 and 37° C. for static culture.
For suspension cells in the logarithmic phase, the original culture medium was directly centrifuged at 50 g for 5 minutes, the supernatant was discarded, and the cells were washed once with PBS and centrifuged. After discarding the supernatant, the complete culture medium was added and the cells were dispersed using a rubber-tipped dropper. The cells are counted, and the cell density was adjusted. The cells were inoculated into appropriate culture bottles or culture dishes, and sufficient complete culture medium was added, and the cells were cultured in a cell culture incubator at 5% CO2 and 37° C.
3. Cell proliferation assay: cells in good state in logarithmic phase were taken and appropriate amount of the cells was inoculated into 96-well plates according to the cell passage treatment method, with each well containing 180 μL complete medium. After the cells growth was recovered and the number of cells in each well is 5000±500, a drug was added for treatment.
After drug treatment during the experimental time, MTT solution with a final concentration of 0.5 mg/mL was added to each well, and placed in a cell culture incubator at 5% CO2 and 37° C. to allow a fully reaction of MTT with cells. After 4 hours, the solution in the 96-well plate was discarded, 100 µL of DMSO was added, and shaked to dissolve the formazan precipitated at the bottom of the plate, and the absorbance value of samples was detected at a wavelength of 570 nm using a microplate reader. Calculation method of cell viability rate:
Table 4 lists some compounds that have inhibitory effects against both of bacteria and cancer cells. In the table, the inhibitory effects against cancer cells are shown: the average proliferation inhibition rate (%) against cancer cells at the dosage of 40 μM.

S. aureus ATCC 43300 = test: In vitro antibacterial activity assay (MIC, broth dilution); type: cell-based; details: Staphylococcus aureus
Description: (§1) The method used to indicate the activity of the compounds in this example is to record the minimum inhibitory concentration (MIC) of the compounds against bacteria. The specific experimental method is as follows:
(§2) 1. The bacterial liquid cultured from a single colony was taken, and diluted into autoclaved CAMHB broth in a ratio of 1:1000, and mixed well.
(§3) 2. The prepared drug solution was filtered through a sterile 0.22 µm syringe filter and placed in a sterile EP tube for later use.
(§4) 3. A 96-well plate was taken, and 20 µL of drug solution ([…]) was added to each well in the first column of the 96-well plate. Then, 180 µL of diluted bacterial liquid was added and mixed well (Perform 3 replicate rows for each drug).
(§5) The same process was performed for the hydrochloride drug.
(§6) 4. 100 μL of diluted bacterial liquid was added to each well in the remaining 11 columns of the 96-well plate. Drugs are the same as above.
(§7) 5. Serial dilution: 100 μL of liquid was taken from the first column to the second column, mixed well, then 100 μL of liquid was taken from the second column to the third column, mixed well, and so on, sequentially diluting down to the last column (column 12). After mixing column 12 well, 100 μL of liquid thereof was discarded. The drug concentration in each well was decreased by two-fold serially (the concentration in the first well is 40 μg/mL).
(§8) 6. Blank CAMHB broth without added bacteria liquid was added to 3 blank wells in the 96-well plate, as negative control.
(§9) 7. The diluted bacterial liquid was added to 3 blank wells in the 96-well plate, as positive control.
(§10) 8. Incubated at 37° C. for 16 hours.
(§11) 9. Results reading: the minimum inhibitory concentration is the minimum drug concentration at which no bacterial growth is visible to the naked eye and without turbidity.

E. coli ATCC 25922 = test: as above; type: cell-based; details: Escherichia coli
Description: as §1, §2, §3, §4, §5, §6, §7, §8, §9, §10, §11

[2] = tested on: methicillin-resistant Staphylococcus aureus; type: in vivo, Kunming mice; details: for reduction of necrosis area compared with the control group: 4 consecutive days, MRSA skin infection in mice
Protocol: Kunming mice (20±2 g) were anesthetized with chloral hydrate and shaved, and then 50 μL of 4×10^7 CFU/mL of methicillin-resistant Staphylococcus aureus was subcutaneously injected. One day later, 100 μL of 0.02, 2 and 200 mg/kg of Example 34 were subcutaneously injected respectively, and 100 μL of normal saline was injected for the control group. The drug was administered for consecutive 4 days, and mice were euthanized on the 5th day, and the area of abscess was measured.

[3] = average proliferation inhibition rate at the dosage of 40 μM
[4] = ATCC43300, Table 3, read-out: MIC S. aureus ATCC 43300
[5] = ATCC43300, Table 4, read-out: S. aureus ATCC 43300 MIC
[6] = ATCC25922, Table 3, read-out: MIC E. coli ATCC 25922
[7] = ATCC25922, Table 4, read-out: E. coli ATCC 25922 MIC

Structure (SMILES): CN[C@H](CC(C)C)C(=O)N[C@H]1C(=O)N[C@@H](CC(N)=O)C(=O)N[C@H]2C(=O)N[C@H]3C(=O)N[C@H](C(=O)N[C@H](C(=O)O)c4cc(O)cc(O)c4-c4cc3ccc4O)[C@H](O)c3ccc(c(Cl)c3)Oc3cc2cc(c3O[C@@H]2O[C@H](CO)[C@@H](O)[C@H](O)[C@H]2O[C@H]2C[C@](C)(N)[C@H](O)[C@H](C)O2)Oc2ccc(cc2Cl)[C@H]1O [vancomycin]
MIC at the end of the resistance experiment [1]: 4 µg/mL

Structure (SMILES): CC(=O)Nc1ccc(-c2cc3c(cc2F)c(=O)c(C(=O)O)cn3C2CC2)nc1 [Example 93]
inhibition at 40 µM (Hela): ≥ 20%
MIC (S. aureus ATCC 43300; ATCC43300, read-out: MIC S. aureus ATCC 43300): 0.1 to 1 µg/mL (≈ 0.262 to 2.62 µM)
MIC (S. aureus ATCC 43300; ATCC43300, read-out: S. aureus ATCC 43300 MIC): ≤ 1 µg/mL
MIC (E. coli ATCC 25922; ATCC25922, read-out: E. coli ATCC 25922 MIC): ≤ 1 µg/mL
MIC (E. coli ATCC 25922; ATCC25922, read-out: MIC E. coli ATCC 25922): 0.1 to 1 µg/mL (≈ 0.262 to 2.62 µM)

Structure (SMILES): COc1c(-c2ncncn2)c(F)cc2c(=O)c(C(=O)O)cn(C3CC3)c12 [Example 77]
MIC (S. aureus ATCC 43300; [4]): 0.1 to 1 µg/mL (≈ 0.281 to 2.81 µM)
MIC (E. coli ATCC 25922; [6]): 0.1 to 1 µg/mL (≈ 0.281 to 2.81 µM)

Structure (SMILES): CCn1cc(C(=O)O)c(=O)c2cc(OC)c(-c3ccc(N)nc3)c(C)c21 [Example 74]
MIC (S. aureus ATCC 43300; [4]): 0.1 to 1 µg/mL (≈ 0.283 to 2.83 µM)
MIC (E. coli ATCC 25922; [6]): 0.1 to 1 µg/mL (≈ 0.283 to 2.83 µM)

Structure (SMILES): C#CCNS(=O)(=O)c1ccc(-c2cc3c(cc2F)c(=O)c(C(=O)O)cn3C2CC2)cc1[N+](=O)[O-] [Example 116]
MIC (S. aureus ATCC 43300; [4]): 0.1 to 1 µg/mL (≈ 0.206 to 2.06 µM)
MIC (E. coli ATCC 25922; [6]): 0.1 to 1 µg/mL (≈ 0.206 to 2.06 µM)

Structure (SMILES): O=C(O)c1cn(C2CC2)c2cc(-c3ccc(S(=O)(=O)NCCCCCCO)cc3)c(F)cc2c1=O [Example 29, 1-cyclopropyl-6-fluoro-7-(4-(N-(6-hydroxyhexyl)sulfamoyl)phenyl)-4-oxo-1,4-dihydroquinolin-3-carboxylic acid]
reduction of necrosis area compared with the control group ([2]; 0.02 mg/kg subcutaneous): 78.09%
reduction of necrosis area compared with the control group ([2]; 2 mg/kg subcutaneous): 81.21%
antibacterial effect in skin infection model ([2]; (corresponding to 0.02 mg/kg, 200 mg/kg)): good antibacterial effect
observation at the subcutaneous administration site ([2]; mouse, in vivo, sc, 200 mg/kg): certain bleeding symptom in body surface appeared at the subcutaneous administration site

The next lines start with results.

MIC (S. aureus ATCC 43300; [4]): ≤ 0.1 µg/mL
MIC (S. aureus ATCC 43300; [5]): ≤ 1 µg/mL
MIC (E. coli ATCC 25922; [6]): 0.1 to 1 µg/mL (≈ 0.241 to 2.41 µM)
MIC (E. coli ATCC 25922; [7]): ≤ 1 µg/mL
Structure (SMILES): O=C(O)c1cn(C2CC2)c2cc(-c3ccc4c(c3)CNS4(=O)=O)c(F)cc2c1=O [Example 107]
inhibition at 40 µM (Hela; [3]): ≥ 20%

MIC (S. aureus ATCC 43300; [4]): 0.1 to 1 µg/mL
MIC (E. coli ATCC 25922; [6]): 0.1 to 1 µg/mL
Structure (SMILES): Nc1cc(-c2nc3c(cc2F)c(=O)c(C(=O)O)cn3C2CC2)ccn1.O=CO [Example 56]

MIC (S. aureus ATCC 43300; [4]): ≤ 0.1 µg/mL
MIC (S. aureus ATCC 43300; [5]): ≤ 1 µg/mL
MIC (E. coli ATCC 25922; [6]): ≤ 0.1 µg/mL
MIC (E. coli ATCC 25922; [7]): ≤ 1 µg/mL
Structure (SMILES): Nc1cc(-c2c(F)cc3c(=O)c(C(=O)O)cn(C4CC4)c3c2Cl)ccn1 [Example 151]
inhibition at 40 µM (Hela; [3]): ≥ 20%

MIC (S. aureus ATCC 43300; [4]): 0.1 to 1 µg/mL (≈ 0.227 to 2.27 µM)
MIC (E. coli ATCC 25922; [6]): 0.1 to 1 µg/mL (≈ 0.227 to 2.27 µM)
Structure (SMILES): COc1cc(-c2c(F)cc3c(=O)c(C(=O)O)cn(C4CC4)c3c2OC)ccc1NC(C)=O [Example 66]

MIC (S. aureus ATCC 43300; [4]): ≤ 0.1 µg/mL
MIC (S. aureus ATCC 43300; [5]): ≤ 1 µg/mL
MIC (E. coli ATCC 25922; [6]): 0.1 to 1 µg/mL (≈ 0.208 to 2.08 µM)
MIC (E. coli ATCC 25922; [7]): ≤ 1 µg/mL
Structure (SMILES): O=C(O)c1cn(C2CC2)c2c(Cl)c(-c3ccc(S(=O)(=O)NCCO)cc3)c(F)cc2c1=O [Example 89]
inhibition at 40 µM (Hela; [3]): ≥ 20%

MIC (S. aureus ATCC 43300; [4]): ≤ 0.1 µg/mL
MIC (E. coli ATCC 25922; [6]): ≤ 0.1 µg/mL
Structure (SMILES): O=C(CCl)Nc1cnc(-c2cc3c(cc2F)c(=O)c(C(=O)O)cn3C2CC2)cn1 [Example 96]

— patent publication US20260224555A1, “NEW PHENYLQUINOLONE COMPOUND HAVING ANTIBACTERIAL AND ANTI-CANCER FUNCTIONS AND PREPARATION THEREOF” (AlphaMol Science Ltd (Shanghai), priority 2022, published 2026)
